In ChEMBL document CHEMBL1143272, “(S)-N-(5-Chlorothiophene-2-sulfonyl)-beta,beta-diethylalaninol a Notch-1-sparing gamma-secretase inhibitor” (Bioorg Med Chem Lett, 2009):
In brackets after ≈: the same amount, converted by molar mass.

Legend:
[1] = Inhibition of gamma-secretase-mediated amyloid beta 40/42 accumulation assessed as beta-CTF cleavage by cell-based sandwich ELISA
[2] = Inhibition of gamma-secretase by Notch-1 cleavage assay
[3] = Selectivity ratio of EC50 for gamma-secretase assessed as Notch-1 cleavage to EC50 for gamma-secretase assessed as beta-CTF cleavage
[4] = Solubility of compound at pH 7.4; assay type: physicochemical; details: buffer
Cytochrome P450 2C9 = Cytochrome P450 2C9 (Homo sapiens, UniProt P11712); assay: Inhibition of CYP2C9 at 50 uM; assay type: ADME
Chain of Cytochrome P450 2C9 (P11712 whole entry): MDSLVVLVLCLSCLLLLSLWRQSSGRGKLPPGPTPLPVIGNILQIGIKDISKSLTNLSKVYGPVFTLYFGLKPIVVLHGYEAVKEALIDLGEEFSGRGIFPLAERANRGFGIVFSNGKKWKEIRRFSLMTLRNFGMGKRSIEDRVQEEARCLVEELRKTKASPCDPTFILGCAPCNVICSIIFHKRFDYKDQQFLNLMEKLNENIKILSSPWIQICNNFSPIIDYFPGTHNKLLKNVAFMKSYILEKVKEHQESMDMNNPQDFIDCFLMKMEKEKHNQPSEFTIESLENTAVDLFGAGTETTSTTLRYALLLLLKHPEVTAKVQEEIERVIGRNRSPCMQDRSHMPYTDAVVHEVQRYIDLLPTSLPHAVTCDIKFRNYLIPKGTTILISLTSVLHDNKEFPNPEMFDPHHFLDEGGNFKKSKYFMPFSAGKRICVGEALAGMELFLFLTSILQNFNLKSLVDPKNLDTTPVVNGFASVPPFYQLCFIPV

Cytochrome P450 3A4 = Cytochrome P450 3A4 (Homo sapiens, UniProt P08684); assay: Inhibition of CYP3A4 at 50 uM; assay type: ADME
Chain of Cytochrome P450 3A4 (P08684 whole entry): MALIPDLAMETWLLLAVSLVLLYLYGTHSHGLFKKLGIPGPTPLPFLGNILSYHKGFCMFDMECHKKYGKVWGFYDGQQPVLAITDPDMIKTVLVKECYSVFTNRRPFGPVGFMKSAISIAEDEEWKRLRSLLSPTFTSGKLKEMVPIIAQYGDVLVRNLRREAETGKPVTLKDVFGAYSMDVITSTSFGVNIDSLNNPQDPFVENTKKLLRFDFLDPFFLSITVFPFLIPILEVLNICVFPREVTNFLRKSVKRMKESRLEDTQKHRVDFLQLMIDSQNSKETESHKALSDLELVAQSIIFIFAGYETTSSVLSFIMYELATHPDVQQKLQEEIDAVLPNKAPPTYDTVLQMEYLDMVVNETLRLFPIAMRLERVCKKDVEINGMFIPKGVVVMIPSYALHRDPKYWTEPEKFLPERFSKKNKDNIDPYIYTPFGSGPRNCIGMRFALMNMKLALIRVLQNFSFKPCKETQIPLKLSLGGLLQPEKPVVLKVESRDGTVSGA

Cytochrome P450 2D6 = Cytochrome P450 2D6 (Homo sapiens, UniProt P10635); assay: Inhibition of CYP2D6 at 50 uM; assay type: ADME
Chain of Cytochrome P450 2D6 (P10635 whole entry): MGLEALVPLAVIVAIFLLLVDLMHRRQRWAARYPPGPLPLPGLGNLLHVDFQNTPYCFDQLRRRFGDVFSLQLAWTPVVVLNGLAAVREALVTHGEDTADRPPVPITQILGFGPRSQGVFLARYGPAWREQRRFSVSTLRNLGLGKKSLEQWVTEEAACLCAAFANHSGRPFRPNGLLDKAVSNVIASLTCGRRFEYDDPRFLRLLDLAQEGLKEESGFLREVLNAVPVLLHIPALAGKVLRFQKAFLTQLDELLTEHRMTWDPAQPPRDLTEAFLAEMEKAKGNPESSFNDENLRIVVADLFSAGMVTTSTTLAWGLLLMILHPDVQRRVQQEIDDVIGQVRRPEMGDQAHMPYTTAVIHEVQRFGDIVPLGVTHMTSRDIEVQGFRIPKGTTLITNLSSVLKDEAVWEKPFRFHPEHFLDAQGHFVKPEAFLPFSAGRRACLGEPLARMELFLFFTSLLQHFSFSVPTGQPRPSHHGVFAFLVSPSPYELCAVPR

Mus musculus [5] = assay: Reduction in amyloid beta 40 level in Tg2576 mouse brain at 20 mg/kg, sc; assay type: functional; parameters: scale not given: the % may be the effect or the level left; details: route subcutaneous
Mus musculus [6] = assay: Reduction in amyloid beta 40 level in Tg2576 mouse brain at 1 mg/kg, sc administered subchronically for 5 days; assay type: functional; parameters: scale not given: the % may be the effect or the level left; details: route subcutaneous
Mus musculus [7] = assay: Reduction in amyloid beta 42 level in Tg2576 mouse brain at 1 mg/kg, sc administered subchronically for 5 days; assay type: functional; parameters: scale not given: the % may be the effect or the level left; details: route subcutaneous

Row | SMILES | EC50 [1] | also measured
1 | CC[C@H](C)[C@@H](CO)NS(=O)(=O)c1ccc(F)s1 | 460 nM | –
2 | CCCCCC[C@@H](CC)[C@@H](CO)NS(=O)(=O)c1ccc(Cl)s1 | 43 nM | –
3 | CC(C)(C)[C@@H](CO)NS(=O)(=O)c1ccc(Cl)s1 | 7500 nM | –
4 | CC[C@H](C)[C@@H](CO)NS(=O)(=O)c1ccc(Cl)s1 | 170 nM | –
5 | CCC[C@H](CC(C)C)[C@@H](CO)NS(=O)(=O)c1ccc(Cl)s1 | 253 nM | –
6 | CC[C@H](C)[C@@H](CO)NS(=O)(=O)c1cc(Cl)c(Cl)s1 | 1050 nM | –
7 | CCC[C@H](c1ccccc1)[C@@H](CO)NS(=O)(=O)c1ccc(Cl)s1 | 4060 nM | –
8 | CC(C)C[C@@H](CO)NS(=O)(=O)c1ccc(Cl)s1 | > 30000 nM | –
9 | O=S(=O)(N[C@H](CO)C1CCCCC1)c1ccc(Cl)s1 | 820 nM | –
10 | CC[C@H](C)[C@@H](CO)NS(=O)(=O)c1cccs1 | 7000 nM | –
11 | CCCC(CCC)[C@@H](CO)NS(=O)(=O)c1ccc(Cl)s1 | 111 nM | –
12 | CC[C@H](C)[C@@H](CO)NS(=O)(=O)c1ccc(Br)s1 | 160 nM | –
13 | C[C@@H](c1ccccc1)[C@@H](CO)NS(=O)(=O)c1ccc(Cl)s1 | 3910 nM | –
14 | CC[C@@H](C)[C@H](CO)NS(=O)(=O)c1ccc(Cl)s1 | 7600 nM | –
15 | CCCCCC[C@@H](C(C)C)[C@@H](CO)NS(=O)(=O)c1ccc(Cl)s1 | 71 nM | –
16 | CCCCC[C@H](CC)[C@@H](CO)NS(=O)(=O)c1ccc(Cl)s1 | 72 nM | –
17 | CCCCC[C@H](CC(C)C)[C@@H](CO)NS(=O)(=O)c1ccc(Cl)s1 | 20700 nM | –
18 | CCCCC[C@H](C)[C@@H](CO)NS(=O)(=O)c1ccc(Cl)s1 | 264 nM | –
19 | CC[C@H](C)[C@@H](CO)NS(=O)(=O)c1ccc(Br)cc1 | 2200 nM | –
20 | CC[C@H](C)[C@@H](CO)NS(=O)(=O)c1ccc(Cl)cc1 | 5500 nM | –

Row | SMILES | EC50 [1] | also measured
21 | CCCCC[C@H](c1ccccc1)[C@@H](CO)NS(=O)(=O)c1ccc(Cl)s1 | > 30000 nM | –
22 | CC[C@H](CC(C)C)[C@@H](CO)NS(=O)(=O)c1ccc(Cl)s1 | 28 nM | –
23 | CCC(CC)[C@@H](CO)NS(=O)(=O)c1ccc(Cl)s1 [GSI-136] | 28 nM | EC50 [2]: 266 nM; Activity [3]: 9.5; solubility [4]: 0.037 µg/mL (≈ 0.119 µM); Activity (Cytochrome P450 2C9): Not Active; Activity (Cytochrome P450 3A4): Not Active; Activity (Cytochrome P450 2D6): Not Active; Activity (Mus musculus [5]): 55%; Activity (Mus musculus [6]): 25%; Activity (Mus musculus [7]): 15%
24 | CCCCCC[C@@H](CCC)[C@@H](CO)NS(=O)(=O)c1ccc(Cl)s1 | 826 nM | –
25 | CC(C)[C@@](C)(CO)NS(=O)(=O)c1ccc(Cl)s1 | 490 nM | –
26 | CC[C@H](C)[C@@H](CO)NS(=O)(=O)c1ccccc1 | 4700 nM | –
27 | CCCCCC[C@@H](CCCCC)[C@@H](CO)NS(=O)(=O)c1ccc(Cl)s1 | > 30000 nM | –
28 | CC(C)C[C@@H](C)[C@@H](CO)NS(=O)(=O)c1ccc(Cl)s1 | 115 nM | –
29 | CC[C@@H](C)[C@@H](CO)NS(=O)(=O)c1ccc(Cl)s1 | 140 nM | –
30 | CCC[C@H](CC)[C@@H](CO)NS(=O)(=O)c1ccc(Cl)s1 | 29 nM | –
31 | O=S(=O)(N[C@H](CO)C1CCNCC1)c1ccc(Cl)s1 | > 30000 nM | –
32 | O=S(=O)(N[C@H](CO)C1CCCC1)c1ccc(Cl)s1 | 580 nM | –
33 | CCCCCC[C@H](CC)[C@@H](CO)NS(=O)(=O)c1ccc(Cl)s1 | 429 nM | –
34 | CC(C)[C@@H](CO)NS(=O)(=O)c1ccc(Cl)s1 | 820 nM | –
35 | CCC[C@H](C)[C@@H](CO)NS(=O)(=O)c1ccc(Cl)s1 | 103 nM | –
36 | O=S(=O)(N[C@H](CO)C(c1ccccc1)c1ccccc1)c1ccc(Cl)s1 | > 30000 nM | –
37 | CC[C@H](C)[C@@H](CO)NS(=O)(=O)c1sc(Cl)cc1Br | > 30000 nM | –
38 | CCCCCC[C@@H](C)[C@@H](CO)NS(=O)(=O)c1ccc(Cl)s1 | 212 nM | –
39 | CC[C@H](C)[C@@H](CO)NS(=O)(=O)c1ccc(Cl)o1 | > 30000 nM | –
40 | CCCCC(CCCC)[C@@H](CO)NS(=O)(=O)c1ccc(Cl)s1 | 4180 nM | –
